Reference: patent EP4650362A1, “NEUROPROTECTIVE PSD-95 POLYPEPTIDE INHIBITOR AND USE THEREOF” (Beijing Tuo Jie Biopharmaceutical Co. Ltd., priority 2023, dated 2024)
No end group written: not given here.

Experiments:
[1] = test system: histamine release; assay: ability to induce histamine release in rats (plasma); format: in vivo, SD rats; settings: rat plasma, 3 nmol/g
Description: With male SD rats as test animals, the ability of a polypeptide compound administered via single intravenous bolus injection to induce histamine release in rats (plasma) was studied.
This test was performed synchronously with Test Examples 3.6, with three animals per group and blood collection time points set as follows: before administration, and 2 min, 8 min, and 15 min after the end of intravenous bolus injection.
The histamine and 3-methylhistamine levels at each time point were determined by LC-MS/MS. LC-MS detection of compounds: (1) Chromatographic conditions: mobile phase A: acetonitrile/water/100 mM ammonium acetate, 50/45/5 (v/v/v), 2% FA; mobile phase B: acetonitrile/100 mM ammonium acetate, 95/5 (v/v), 2% FA; flow rate: 0.4 mL/min; chromatography column: Waters BEH HILIC 1.7 µm, 2.1 × 150 mm; column temperature: 50 °C; injection volume: 20 µL. (2) Mass-spectrometric conditions: The mass spectrometry analysis used an electrospray ionization (ESI) source, a positive ion analysis mode, and a multi-reaction monitoring (MRM) scan mode.
Sample pretreatment: A 30 µL plasma sample was taken and added to 200 µL of an acetonitrile solution containing tetradeuterated histamine (D4-histamine, 100 ng/mL). The mixture was vortexed for 1 min and then centrifuged at 5800 rpm for 10 min, and 100 µL of the supernatant was transferred to a sample tray and injected into an instrument for analysis. […] Table 7. Histamine levels at different time points

[2] = nephrotoxicity in rats (blood urea nitrogen, serum creatinine); format: in vivo, SD rats; settings: for Blood urea nitrogen (BUN) levels / Serum creatinine (Crea) levels: rat serum
Description: With male SD rats as test animals, the nephrotoxicity of a polypeptide compound administered via single intravenous bolus injection in rats (serum) was studied.
This test was performed synchronously with Test Examples 3.6, with blood collection time points set as follows: before administration (day 0), and days 2, 4, and 7 post-administration. At each time point, 0.3 mL of blood was collected, transferred to a centrifuge tube, and left to stand at room temperature for 1 h. Then the whole blood sample was centrifuged at 4 °C at 4000 g for 5 min, and a serum sample was obtained by separation and cryopreserved at -80 °C.
The blood urea nitrogen (BUN) and serum creatinine levels at each time point were determined through commercially available kits. For blood urea nitrogen, the urease continuous monitoring method was used. For serum creatinine, the sarcosine oxidase method was used. The sample was thawed in a refrigerator at 2 to 8 °C and vortexed for thorough mixing, and 100 µL of the sample was pipetted into a sample cup. The cup was placed in the sample position of a biochemistry analyzer, and assays were performed according to the instructions of the kits. The experimental results are shown in Tables 8-1 and 8-2, FIG. 5A, and FIG. 5B.

[3] = pharmacokinetic study of different doses in rats; format: in vivo, SD rats; settings: intravenous bolus injection, 3 nmol/g, n = 3
Description: For example, at high doses, the agent causes symptoms such as tachycardia and blood pressure reduction due to excessive histamine release. Therefore, the pharmacokinetic profile of polypeptide compound 14 was assessed again using three doses: a high dose (3 nmol/g), a medium dose (1 nmol/g), and a low dose (0.3 nmol/g). […] Plasma concentration-time curves were plotted, and the pharmacokinetic parameters were calculated using WinNonlin software. Table 6. Intravenous bolus injection pharmacokinetic parameters in rats (different doses, n = 3)

[4] = test system: histamine release; assay: ability to induce histamine release in beagle dogs (plasma); format: in vivo; settings: beagle dog plasma, 1.2 nmol/g
Description: With beagle dogs as test animals, the ability of a polypeptide compound administered via single intravenous infusion to induce histamine release in dogs (plasma) was studied.
This test was performed synchronously with Test Examples 3.9, with four animals per group and blood collection time points set as follows: before administration (0 h), and 2 min, 5 min, and 15 min after the end of intravenous infusion.
Sample analysis and data processing were performed with reference to the methods in 3.7.3. Table 10. Histamine levels at different time points

[5] = 3 nmol/g, day 0 (before administration)

Question: Which results are given for “YGRKKRRQRRRKLSSIESDV [NA-1, YGRKKRRQR RRKLSSIESDV, reference compound]”?
Answer: Histamine levels (sums of detected histamine and 3-methylhistamine) ([1]; 0 min (before administration)): 21.0±5.9; Histamine levels (sums of detected histamine and 3-methylhistamine) ([1]; 2 min after the end of intravenous bolus injection): 390.7±164.2; Histamine levels (sums of detected histamine and 3-methylhistamine) ([1]; 8 min after the end of intravenous bolus injection): 86.6±36.6; Histamine levels (sums of detected histamine and 3-methylhistamine) ([1]; 15 min after the end of intravenous bolus injection): 48.3±19.2; Blood urea nitrogen (BUN) levels [2, 5]: 10.8 ± 1.9 mg/dL; Serum creatinine (Crea) levels [2, 5]: 0.198 ± 0.007 mg/dL; Blood urea nitrogen (BUN) levels ([2]; 3 nmol/g, day 2): 14.8 ± 1.9 mg/dL; Serum creatinine (Crea) levels ([2]; 3 nmol/g, day 2): 0.215 ± 0.003 mg/dL; Blood urea nitrogen (BUN) levels ([2]; 3 nmol/g, day 4): 17.2 ± 3.6 mg/dL; Serum creatinine (Crea) levels ([2]; 3 nmol/g, day 4): 0.208 ± 0.008 mg/dL; Blood urea nitrogen (BUN) levels ([2]; 3 nmol/g, day 7): 19 ± 3.3 mg/dL; Serum creatinine (Crea) levels ([2]; 3 nmol/g, day 7): 0.209 ± 0.009 mg/dL; increase of blood urea nitrogen level compared to before administration ([2]; rats, 3 nmol/g, day 4 and day 7): ≤ 2 fold; renal safety concerns ([2]; rats, within the tested concentration range, 7-day monitoring period): neither NA-1 nor polypeptide compound 14 caused significant renal safety concerns; half-life ([3]; SD, rat, in vivo): 2.1 min; AUC(0-t) ([3]; blood to 180 min): 1149 ng·h/mL; AUC(inf) [3]: 1154 ng·h/mL; Cmax [3]: 7188 ng/mL; MRTO-inf [3]: 7.5 min; Histamine levels (sums of detected histamine and 3-methylhistamine) ([4]; 0 min (before administration)): 7.08±3.15; Histamine levels (sums of detected histamine and 3-methylhistamine) ([4]; 2 min after the end of intravenous infusion): 40.47±64.51; Histamine levels (sums of detected histamine and 3-methylhistamine) ([4]; 5 min after the end of intravenous infusion): 73.95±131.85; Histamine levels (sums of detected histamine and 3-methylhistamine) ([4]; 15 min after the end of intravenous infusion): 68.80±124.89
